Patent publication US7799346B2, “Method of treatment directed to agent retention in biological tissues” (Advanced Cardiovascular Systems, Inc., priority 1999, dated 2010)

Columns and labels:
[1] = cited from earlier work; for pKa NH3: aminium group NH3+; for pKa CO2H: carboxyl group
[2] = In-vitro agent retention in perfused excised vessel, fluorescent intensity of tissue sections; type: in vitro ADME, porcine
Source text: The target tissue is a live excised porcine carotid. The tissue sample is perfused with buffered saline of Kerbs-henseleit Buffer (Sigma Catalog #K3753) at physiological temperature and pressure. Thereafter, the excised vessels are received in buffered saline solution. The artery segments are sutured to tubing using plastic nipple adapters and loaded into a perfusion chamber. The segments are stretched to their original lengths. In the perfusion chamber, the vessels are allowed to equilibrate for 10 minutes at 37° C. the hydrostatic pressure head above the chamber is about 100 cm.
A microporous balloon catheter is inserted through the rotating hemostatic valve (RHV) and secured. The agent used is […]. The agent is delivered through the catheter at 3.5 atm pressure for 2 minutes in both control and test samples. The amount of agent delivered is about 3 ml. Immediately following agent introduction, a barrier of Poly(amine) Barrier is delivered through the catheter in only the test samples for about 2 minutes. The total amount of barrier introduced is about 3 ml.
The test and control vessels are flushed with the buffer solution for about 15 minutes. The proximal and distal positions of the vessels are marked and the vessels are removed from the perfusion chamber and placed into a bath containing liquid nitrogen. The vessels are mounted in paraffin and sliced in 10 micron thin sections at the proximal, mid and distal portions.
The slides are observed using a fluorescent microscope. The fluorescent intensities of the sections are recorded, where fluorescence represents the presence of agent in the tissue. The resulting intensities over the length of the tissue sections are represented in the graphs in FIG. 5A showing the proximal section and FIG. 5B showing the mid section. […] The average intensity of agent in the test sample is about 1083, whereas the control intensity is about 749. Thus, a 44% increase in agent occurs with the use of the barrier. […]

Row | Molecule | pKa NH3 [1] | pKa CO2H [1] | fluorescent intensity of agent in tissue section, Distal [2] | fluorescent intensity of agent in tissue section, Mid [2] | fluorescent intensity of agent in tissue section, Proximal [2]
1 | O=C(O)[C@@H]1C[C@@H](O)CN1 [Hydroxyproline] | 9.7 | 1.9 | – | – | –
2 | N[C@@H](CSSC[C@H](N)C(=O)O)C(=O)O [Cystine] | 7.9 | 1.6 | – | – | –
3 | CSCC[C@H](N)C(=O)O [Methionine] | 9.9 | – | – | – | –
4 | cascade blue | – | – | 747 | 831 | 669
